Results from patent publication US20080166310A1, “Administration of 2-oxyacetamide compounds for promoting and/or inducing and/or stimulating the pigmentation of keratin materials and/or for limiting the depigmentation and/or bleaching thereof” (L'OREAL, priority 2005, published 2008).

Test system: tyrosinase activity of normal human melanocytes
Experiment: Effect on the tyrosinase activity of normal human melanocytes in culture (L-Dopa substrate, absorbance 450 nm)
Assay type: cell-based
Details: 72 hours, normal human epidermal melanocytes
Method: Melanocyte Culture Conditions:
Normal human epidermal melanocytes are cultured (9th passage) in “melanocytes growth medium M2” supplemented with Promocell C24300 supplements 50 IU/ml of penicillin and 50 μg/ml of streptomycin (Invitrogen) under standard temperature conditions (37° C.) and 5% CO2.
Preparation of the Solutions of the Test Compound:
The compound is dissolved in absolute ethanol (PGE2) or in DMSO (15-PGDH inhibitors). The final titer of the prepared solutions is 10 mM. The final test concentrations range from 0.1 to 10 μM (PGE2) and 1 to 10 μM (15-PGDH inhibitors).
The tests performed consist in measuring the inhibitory effect on 15-PGDH alone or combined with PGE2* on the overall activity of tyrosinase.
PGE2 is a pigmentation modulator that is deactivated by the enzyme 15-PGDH.
The melanocytes are cultured in 96-well plates, to the point of confluence (culture conditions described in a), and the supernatant of each of the wells is then removed and replaced with medium containing the compounds to be evaluated, i.e., (in triplicate) the 15-PGDH inhibitor alone at 1 μM and 10 μM or for each of these first conditions in the presence of 0.1 μM, 1 μM or 10 μM of PGE2.
The cultures are maintained under these various conditions for 72 hours, the supernatants are then removed and the cell carpets are washed with a phosphate buffer (pH=7.2). The cells are lysed with a pH 7.2 phosphate buffer containing 1% Triton X100.
The tyrosinase activity of each of the lysates is then estimated against a fungal tyrosinase range (Sigma T7755).
The methodology employed uses L-Dopa as reaction substrate (45 minutes at 37° C.), and the formation of melanin is assessed by measuring the absorbance at 450 nm.
In this test, two references are also evaluated: kojic acid (a tyrosinase inhibitor introduced at 0.1% into the culture medium) and isobutylmethylxanthine (IBMX), a phosphodiesterase inhibitor which, by limiting the catabolism of cAMP, contributes towards increasing the overall tyrosinase activity as assessed in this test.

For CCCCC[C@H](O)/C=C/[C@H]1[C@H](O)CC(=O)[C@@H]1C/C=C\CCCC(=O)O [PGE2, prostaglandin E2], the “stimulation of the activity of tyrosinase” value (PGE2 alone at 1 μM) was 9% and the “stimulation of the activity of tyrosinase” value (PGE2 alone at 10 μM) was 15%.
For O=C(COc1cccc(Cl)c1)NCc1ccco1 [Compound 23, 2-(3-chlorophenoxy)-N-furan-2-ylmethylacetamide], the “stimulation of the tyrosinase activity” value (Compound 23 (1 μM) + PGE2 (1 μM)) was 31% and the “stimulation of the tyrosinase activity” value (Compound 23 (1 μM) + PGE2 (10 μM)) was 28%.
